# “And” between values parts separate entries of the source, which are not always exact repeats. Equal values may be shown once. Read-outs that look alike come from different tables or passages of the source.
# How the values were obtained:
# [1] = biological target: acetylcholinesterase (AChE) (Homo sapiens, UniProt P22303); assay: esterase inhibition compared with galantamine; format: biochemical; conditions: read-out: esterase inhibition, relative to that induced by the same concentration of galantamine
# Procedure: Said derivative of galantamine can be obtained by a one-step chemical modification of the parent drug (galantamine). The modification almost completely abolishes the pharmacological activity of galantamine on its two major targets in the human body, nicotinic acetylcholine receptor (nAChR) and acetylcholinesterase (AChE).
# At the physiologically interesting concentration of 1 μM, Memogain has less than 4% of the esterase inhibition induced by the same concentration of galantamine.
# rats [2] = conditions: rat, in vivo
# ferrets = assay: Gastro-intestinal side effects in ferrets; conditions: i.p.
# Procedure: These studies were performed in ferrets that were dosed i.p. with either 20 mg/kg galantamine (maximal tolerated dose), or with 20, 40 and 80 mg/kg Memogain, respectively.
# [3] = in vivo
# [4] = system: scopolamine-induced amnesia in mice; assay: Reversal of scopolamine-induced amnesia in T-maze; format: in vivo; conditions: scopolamine i.p.; intranasal Memogain versus galantamine
# Text: We therefore used pharmacodynamics studies to determine the effective concentrations of parent drug in suitable experimental conditions, such as the reversal of scopolamine-induced temporary amnesia in the T-maze cognitive paradigm studied in mice. These studies confirmed that several fold higher (up to 20 fold) BBRC of parent drug (and related effectiveness in cognitive enhancement) can be achieved by transmucosal delivery of pro-drug formulations via the nasal or buccal cavity.
# Mice were treated with scopolamine to induce acute amnesia and were then tested for performance in a T-maze, in the absence or presence of […] galantamine or intranasal Memogain (FIG. 7). […] Mice were challenged with Scopolamine i.p. in a T-maze assay to induce disorientation/amnesia (set to 0% performance recovery). Co-application of galantamine (i.p.) or of Memogain® (i.n.) rescues orientation in the T-maze in a dose-dependent manner.
# dogs [5] = conditions: dog, in vivo
# rats [6] = conditions: rat, in vivo; remark: listed apart in the source
# dogs [7] = assay: Safety after intravenous bolus; format: in vivo
# Procedure: Example 13. Memogain is at Least 10 Times Safer than Galantamine
# This study was performed in dogs, and both drugs were administered as intravenous bolus. The lower toxicity of Memogain is due to the much lower steady-state plasma levels of galantamine resulting from enzymatic cleavage of the pro-drug (FIG. 11).
# [8] = 3 mg/kg
# Procedure: The pharmacokinetics and brain-to-blood concentration ratios (BBRC) of several galantamine derivatives and their cleavage product galantamine were evaluated after intranasal administration in Swiss albino mice at a dose of 3 mg/kg. After extraction from brain and blood, the drug concentrations were determined by LC/MS/MS. For comparison, the BBRC for the parent drug galantamine was also determined.
# in vivo = assay: in vivo
# Procedure: The study was performed in dogs. A single dose of 4 mg/kg intranasal Memogain was administered and the plasma levels of Memogain and liberated galantamine were determined as a function of time after administration.
# [9] = format: in vivo
# Text: Intranasal dosing can be done with simple spray-pump methods, although also many other methods can be used.
# [10] = design: species or system Wistar rats; conditions: rat, in vivo, 3 mg/kg
# Procedure: The first-pass effect of Gln-1062 was evaluated after intravenous and intraportal dosing of 3 mg/kg in Wistar rats (FIG. 8).
# physchem = format: physicochemical
# Procedure: Free Base in Water: 26 μg/ml (66 μM)
# Maleate in Water: 7.5 mg/ml (15 mM)
# Maleate in 0.9% NaCl: 0.6 mg/ml (1.5 mM)
# Free Base in Cyclodextrin-Vehicle^1): 8.9 mg/ml (23 mM)
# Maleate in Cyclodextrin-Vehicle): 21 mg/ml (41 mM) ^1) 15% (109 mM) Hydroxypropyl-β-cyclodextrin, 96 mM NaCl
# [11] = mouse, in vivo
# Procedure: Mice were injected with 3 mg/kg i.v. of either Memogain or galantamine.
# [12] = Solubility test of Memogain salts in water (HPLC); format: physicochemical; conditions: after warming to >50° C.; precipitation seeding avoided
# Procedure: 10 mg of the corresponding salt and 100 microliters of water were sonicated for 5 min at r.t. The resulting solution or suspension was centrifuged for 3 min. and filtered using a filter tip. 10 microliters of the filtrate was transferred in a volumetric flask and diluted to 10.0 ml with water to obtain the sample solution. 20 microliters of this sample solution was injected for HPLC and the amount of Memogain quantified using a Merck Chromolith RP18 column and a gradient of 5% to 60% acetonitrile and water, both solvents containing 0.1% formic acid, injection volume: 20 microliters.
# acetylcholinesterase (AChE), sequence (P22303 32-614): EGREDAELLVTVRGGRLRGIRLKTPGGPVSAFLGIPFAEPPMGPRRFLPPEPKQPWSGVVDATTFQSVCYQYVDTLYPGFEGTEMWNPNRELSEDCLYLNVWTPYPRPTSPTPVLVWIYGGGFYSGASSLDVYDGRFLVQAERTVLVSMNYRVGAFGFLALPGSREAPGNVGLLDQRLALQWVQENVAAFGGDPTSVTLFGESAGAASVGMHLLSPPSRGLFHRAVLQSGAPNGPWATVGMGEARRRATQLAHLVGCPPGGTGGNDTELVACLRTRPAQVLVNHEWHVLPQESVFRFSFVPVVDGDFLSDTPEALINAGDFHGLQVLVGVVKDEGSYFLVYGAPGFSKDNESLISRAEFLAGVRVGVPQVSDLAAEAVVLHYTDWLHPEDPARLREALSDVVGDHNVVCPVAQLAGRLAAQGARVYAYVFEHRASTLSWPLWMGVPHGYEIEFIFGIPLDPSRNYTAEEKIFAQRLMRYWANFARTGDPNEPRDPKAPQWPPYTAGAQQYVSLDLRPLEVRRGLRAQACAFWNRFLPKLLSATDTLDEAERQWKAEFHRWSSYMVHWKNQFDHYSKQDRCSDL
compound,measurement,setting,value
"COc1ccc2c3c1O[C@H]1C[C@@H](OC(=O)c4ccccc4)C=C[C@@]31CCN(C)C2 [GLN-1062, (4aS,6R,8aS)-4a,5,9,10,11,12-hexahydro-3-methoxy-11-methyl-6H-Benzofuro[3a,3,2-ef][2]benzazepin-6-ol, 6-benzoate]",inhibition at 1 µM,[1],< 4%
same,adverse effects compared with galantamine,rats [2],much less adverse effects
same,lower toxicity as compared to galantamine,"ferrets; from dose dependency of adverse effects (20, 40, 80 mg/kg)",at least 4 times
same,GI-related side effects,[3],GI-related side effects had practically disappeared
same,reversal of acutely induced amnesia (T-maze performance),[4],more effective than galantamine
same,adverse effects compared with galantamine,dogs [5],much less adverse effects
same,adverse effects compared with galantamine,rats [6],much less adverse effects
same,safety compared with galantamine,dogs [7],at Least 10 Times
same,BBRC compared with galantamine,"[8]; mouse, in vivo",particularly large BBRC
same,half-life,in vivo; dog,90 min
same,Kp at 120 min,"in vivo; dog, 4 mg/kg",9
same,GI side effects,[9]; in vivo,no GI side effects were observed
same,"maximal concentration levels in the brain, compared with i.v. administration",[10],similarly high maximal concentration levels
same,solubility,physchem; aqueous with cosolvent or surfactant or cyclodextrin,8900 µg/mL and 23000 µM
same,solubility,physchem; water,26 µg/mL and 66 µM
COc1ccc2c3c1O[C@H]1C[C@@H](O)C=C[C@@]31CCN(C)C2 [galantamine],maximal tolerated dose,ferrets,20 mg/kg
same,BBRC,[11],~1:1
same,Kp at 120 min,"in vivo; in vivo, 4 mg/kg",1 to 1.5
same,half-life,"in vivo; in vivo, 4 mg/kg",360 min
"COc1ccc2c3c1O[C@H]1C[C@@H](OC(=O)c4ccccc4)C=C[C@@]31CCN(C)C2.O=C(O)C(O)C(O)C(O)C(O)CO [Memogain gluconate, galantamine benzoate gluconate]",stability of metastable high-concentration aqueous solution,[12],stable for hours and days
same,BBRC compared with galantamine,"[8]; intranasal, LC/MS/MS",much larger BBRC than galantamine
same,local sensation on intranasal dosing,[9]; intranasal,no burning sensation to nose
COc1ccc2c3c1O[C@H]1C[C@@H](OC(=O)c4ccccc4)C=C[C@@]31CCN(C)C2.O=C(O)/C=C\C(=O)O [Memogain maleate],Solubility in 0.9% NaCl,physchem; 0.9% NaCl,0.6 mg/ml and 1.5 mM
same,Solubility in Cyclodextrin-Vehicle,"physchem; 15% (109 mM) Hydroxypropyl-β-cyclodextrin, 96 mM NaCl",21 mg/ml and 41 mM
same,Solubility in Water,physchem; water,7.5 mg/ml and 15 mM
